One series can be described thus: in vivo. More on the design: species or system SD rats. Conditions: rat, po, 15 mg/kg. The method, then: Eighteen SD male rats (purchased from Weitong Lihua Experimental Animal Technology Co., Ltd., certificate number: 20211103Aazz0619000910), weighing 240-280 g, were randomly divided into 6 groups, with 3 rats in each group. The animals were fasted overnight before administration. On the day of administration, the compounds of Examples 3, 4, 5, 6, Compound A. and Compound A methyl ester were gavaged to the animals in each groups respectively, and the dosage was 15 mg/kg (calculated as Compound A). Before administration and 0.25, 0.5, 1, 2, 4, 6, 8, and 24 h after administration, 0.15 mL of blood was collected from the animals through the jugular sinus and placed in an EDTA-K2 anticoagulant tube containing 3 μL of dichlorvos aqueous solution (10 mg/mL). After centrifugation, plasma was collected, and was placed in the sample, and then 10 μL of plasma sample was taken, 500 μL of acetonitrile containing IS (verapamil 5 ng·mL^−1, glibenclamide 50 ng·mL^−1, tolbutamide 200 ng·mL^−1, and diclofenac 200 ng·mL^−1) was added, vortexed for 10 min, and then centrifuged at 3700 rpm for 10 min, and then 70 μL of supernatant and 70 μL of water were added, and vortexed for 10 min. An aliquot of 2 μL of the mixture was injected into the LC-MS/MS system (Triple Quad 5500+: LC-MS-MS-022) to measure blood concentration of the compounds. WinNonlin 8.0 software was used to analyze the pharmacokinetic parameters.

For series [1] the following is noted: background statement; cited from earlier work.
Series [2] has as its system adenosine diphosphate (ADP)-induced platelet aggregation. Conditions: rabbit; from CN101851209B; cited from earlier work.
For series [3] the following is noted: background statement; cited from earlier work. The source holds these as a separate data set.
Series [4] concerns arteriovenous bypass thrombi in rats. Description: Antithrombotic activity in vivo: arteriovenous bypass thrombosis in rats. Particulars: for inhibition at 15 mg/kg: Rattus norvegicus, po.
Description: Each group was given corresponding drugs by gavage (dosage was 15 mg/kg), and the normal control group was given an equal volume of solvent, all of which were given by single gavage. One hour after the last administration, the rats were anesthetized with 3% chloral hydrate intraperitoneally, and the right common carotid artery and left external jugular vein were isolated in a supine position. A polyethylene tube was taken with an inner diameter of 1.5 mm and a length of 10 cm, a 6 cm long silk thread (pre-weighed) was inserted into it, and the polyethylene tube was filled with normal saline solution of heparin (50 U/ml). One end of the polyethylene tube was inserted into the left external jugular vein, heparin (50 U/kg) was injected, and the other end was inserted into the right common carotid artery. After blood flow was opened for 15 minutes, the blood flow was interrupted and the silk thread was quickly taken out and weighed. The total weight minus the original silk thread weight was the wet weight of the thrombus. The silk thread was placed in an oven for drying at 70° C. The dry weight of the thrombus was obtained by weighing the silk thread minus the original silk thread weight, and the inhibition rate was calculated.

Each structure is given as a SMILES string. Where two headings read alike, the source gives them in different places.

The AUC(0-inf) is the area under the concentration-time curve extrapolated to infinity. Higher therefore signals high exposure. For orientation: AUC(0-t) means the area under the concentration-time curve up to a stated or last time point. A word on the Cmax: it is the peak of the concentration-time curve. In general, MRT last refers to the average time that molecules of a dose stay in the body. For orientation: Tmax means the time at which the peak concentration occurs. One may read the half-life as how long it takes for the measured level to halve. Read a high half-life as slow decline. As for `COC(=O)c1ccc(OCCn2ccnc2)c(OC)c1` [Compound A methyl ester, reference compound], in “in vivo”, the AUC(0-inf) came to 1600 ng·h/mL, the exposure AUC(0-t) came out at 1490 ng·h/mL, the Cmax was 513 ng/mL and the “F (bioavailability relative to compound A)” value turned out to be 92.18%. In addition, in the series “in vivo”, the MRT last was 6.5 h, the time to peak (Tmax) worked out at 0.46 h and the half-life was 8.4 h.
Usually inhibition stands for the drop in the measured response relative to a control, in per cent. With `COc1cc(C(=O)O)ccc1OCCn1ccnc1` [Compound A, reference compound], the “Ability to penetrate the blood-brain barrier” value in series [1] is on record as “weak”. In the series “in vivo”, this compound showed an AUC(0-inf) of 1720 ng·h/mL, an area under the curve AUC(0-t) of 1610 ng·h/mL, a Cmax of 604 ng/mL and a mean residence time (MRT last) of 5.4 h. For the same compound, in the series “in vivo”, the time of peak concentration (Tmax) stood at 0.35 h and the half-life was 10.7 h. Besides, the “Inhibitory effect on ADP-induced platelet aggregation” value in series [2] is listed as “significant inhibitory effect”. The Oral bioavailability result in series [3] is reported as “low”. In addition, the inhibition at 15 mg/kg in series [4] (read-out: Inhibition rate (thrombus dry weight)) stood at 36%. In addition, the inhibition at 15 mg/kg in series [4] (read-out: Inhibition rate (thrombus wet weight)) amounted to 31%. For the same compound, the Thrombus wet weight in series [4] (rat arteriovenous bypass, 15 mg/kg single gavage, 1 h after dosing, 15 min blood flow, x ± s, n = 8) is 69.8 ± 11.2^★★ mg. For the same compound, the Thrombus dry weight in series [4] (rat arteriovenous bypass, 15 mg/kg single gavage, thread dried at 70° C., x ± s, n = 8) was 21.8 ± 6.0^★★ mg.
For the compound `COc1cc(C(=O)OCCCCCC(=O)O)ccc1OCCn1ccnc1` [Example 3, 6-(4-(2-(1H-imidazol-1-yl)ethoxy)-3-methoxybenzoyloxy)hexanoic acid], in the series “in vivo”, the total exposure AUC(0-inf) turned out to be 3380 ng·h/mL, the AUC(0-t) came to 3230 ng·h/mL, the maximum concentration (Cmax) was 8590 ng/mL and the “F (bioavailability relative to compound A)” value was determined as 200.37%. In the series “in vivo”, the mean residence time (MRT last) is 0.47 h, the time to peak (Tmax) is 0.25 h and the half-life was 3.06 h.
Consider `COc1cc(C(=O)OCOC(=O)OC(C)C)ccc1OCCn1ccnc1` [Example 5, ((isopropoxycarbonyl)oxy)methyl-4-(2-(1H-imidazol-1-yl)ethoxy)-3-methoxybenzoate], for which, in the series “in vivo”, the AUC(0-inf) came to 3000 ng·h/mL, the area under the curve AUC(0-t) was determined as 2890 ng·h/mL, the highest concentration (Cmax) was 7080 ng/mL and the “F (bioavailability relative to compound A)” value turned out to be 179.28%. In addition, in the series “in vivo”, the MRT last turned out to be 0.85 h, the Tmax was determined as 0.25 h and the half-life is 3.43 h.
`COc1cc(C(=O)OC(C)OC(C)=O)ccc1OCCn1ccnc1` (centres unmarked) [Example 6, 1-acetoxyethyl-4-(2-(1H-imidazol-1-yl)ethoxy)-3-methoxybenzoate]: in the series “in vivo”, the area under the curve AUC(0-inf) amounted to 3170 ng·h/mL, the AUC(0-t) came out at 2850 ng·h/mL, the highest concentration (Cmax) stood at 8140 ng/mL and the “F (bioavailability relative to compound A)” value is 176.8%. In “in vivo”, the MRT last was found to be 1.09 h, the Tmax amounted to 0.25 h and the half-life was 4.86 h.

The values are drawn from patent publication US20260285815A1, “Imidazolidinyl Vanillic Acid Ether Derivative and Use Thereof” (priority 2022, published 2026).
